Experiments:
Type in all cases: biochemical
FAAH = target: T1, FAAH (Mus musculus, UniProt O08914); assay: In vitro competitive activity-based protein profiling (mouse), FAAH; conditions: for inhibition at 1 µM: mouse proteome, in vitro; for IC50: mouse brain membrane fraction or cell lysates, 30 min preincubation at 37° C, FP-Rh probe
T1 construct: Proteomes (mouse brain membrane fraction or cell lysates); from tissue; host or cells: mouse brain membrane fraction (or unspecified cell lysates)
T1 sequence (O08914 1-579): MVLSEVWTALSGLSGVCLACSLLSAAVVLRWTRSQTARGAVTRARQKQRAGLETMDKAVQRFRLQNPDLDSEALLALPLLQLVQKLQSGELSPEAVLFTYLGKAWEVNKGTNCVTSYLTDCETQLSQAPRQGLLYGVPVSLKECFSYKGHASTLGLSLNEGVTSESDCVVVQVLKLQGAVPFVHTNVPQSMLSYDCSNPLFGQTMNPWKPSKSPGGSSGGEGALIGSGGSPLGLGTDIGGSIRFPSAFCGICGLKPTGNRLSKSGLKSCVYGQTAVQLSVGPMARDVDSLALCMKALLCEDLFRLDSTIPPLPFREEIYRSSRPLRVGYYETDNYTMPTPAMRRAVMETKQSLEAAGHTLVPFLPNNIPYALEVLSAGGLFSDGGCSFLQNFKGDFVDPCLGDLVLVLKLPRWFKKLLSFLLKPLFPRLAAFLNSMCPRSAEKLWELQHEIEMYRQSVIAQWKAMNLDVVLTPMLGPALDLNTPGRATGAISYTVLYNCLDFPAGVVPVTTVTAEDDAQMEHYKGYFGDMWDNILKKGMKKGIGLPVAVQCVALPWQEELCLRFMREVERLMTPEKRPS
Outline: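 Competitive ABPP: inhibitor exposure (30 min, 37° C) of mouse brain membrane or lysate proteome at 1.0 mg/mL, then labelling with FP-Rh for another 30 min. Activity quantified by in-gel fluorescence of FAAH bands after SDS-PAGE.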

ABHD6 = target: T2, ABHD6 (Mus musculus, UniProt Q8R2Y0); assay: In vitro competitive activity-based protein profiling (mouse), ABHD6; conditions: for inhibition at 1 µM: mouse proteome, in vitro, read-out: % Inhibition at 1 μM ABHD6; for IC50: mouse brain membrane fraction or cell lysates, 30 min preincubation at 37° C, FP-Rh probe
T2 construct: Proteomes (mouse brain membrane fraction or cell lysates); from tissue; host or cells: mouse brain membrane fraction (or unspecified cell lysates)
T2 sequence (Q8R2Y0 1-336): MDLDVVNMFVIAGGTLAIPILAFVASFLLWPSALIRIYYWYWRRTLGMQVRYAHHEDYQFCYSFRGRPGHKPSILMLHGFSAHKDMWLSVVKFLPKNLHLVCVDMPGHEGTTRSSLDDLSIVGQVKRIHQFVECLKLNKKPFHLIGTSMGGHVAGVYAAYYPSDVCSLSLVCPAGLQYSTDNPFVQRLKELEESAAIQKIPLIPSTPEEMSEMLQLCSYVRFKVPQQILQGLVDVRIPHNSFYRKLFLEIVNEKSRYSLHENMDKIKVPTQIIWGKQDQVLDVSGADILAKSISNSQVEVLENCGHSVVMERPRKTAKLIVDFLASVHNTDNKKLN
Procedure: (§1) In Vitro Competitive Activity-Based Protein Profiling (Mouse).
(§2) Proteomes (mouse brain membrane fraction or cell lysates) (50 μL, 1.0 mg/mL total protein concentration) were preincubated with varying concentrations of inhibitors at 37° C. After 30 min, FP-Rh (1.0 μL, 50 μM in DMSO) was added and the mixture was incubated for another 30 min at 37° C. Reactions were quenched with SDS loading buffer (50 μL-4×) and run on SDS-PAGE.

MAGL = target: T3, MAGL (Mus musculus, UniProt O35678); assay: In vitro competitive activity-based protein profiling (mouse), MAGL; conditions: for inhibition at 1 µM: mouse proteome, in vitro, read-out: % Inhibition at 1 μM MAGL; for IC50: mouse brain membrane fraction or cell lysates, 30 min preincubation at 37° C, FP-Rh probe
T3 construct: Proteomes (mouse brain membrane fraction or cell lysates); from tissue; host or cells: mouse brain membrane fraction (or unspecified cell lysates)
T3 sequence (O35678 1-303): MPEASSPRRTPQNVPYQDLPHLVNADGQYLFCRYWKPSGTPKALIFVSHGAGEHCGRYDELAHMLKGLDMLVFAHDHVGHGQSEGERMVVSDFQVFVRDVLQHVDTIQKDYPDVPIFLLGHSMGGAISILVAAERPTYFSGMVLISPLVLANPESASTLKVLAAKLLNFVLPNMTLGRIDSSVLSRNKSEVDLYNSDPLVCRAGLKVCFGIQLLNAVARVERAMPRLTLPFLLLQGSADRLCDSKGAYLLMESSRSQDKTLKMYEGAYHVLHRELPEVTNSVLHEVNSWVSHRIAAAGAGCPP
Procedure: as §1, §2

Row | inhibition at 1 µM (FAAH) | IC50 (FAAH) | inhibition at 1 µM (ABHD6) | IC50 (ABHD6) | inhibition at 1 µM (MAGL) | IC50 (MAGL) | Structure (SMILES)
1 | < 25% | > 1000 nM | > 75% | 100 to 1000 nM | > 75% | < 100 nM | O=C(OC(C(F)(F)F)C(F)(F)F)N1CCN(Cc2ccc(C(F)(F)F)cc2N2CCC(CO)C2)CC1 (stereo not drawn) [Example 73, 1,1,1,3,3,3-hexafluoropropan-2-yl 4-(2-(3-(hydroxymethyl)pyrrolidin-1-yl)-4-(trifluoromethyl)benzyl)piperazine-1-carboxylate]
2 | < 25% | > 1000 nM | > 75% | > 1000 nM | > 75% | < 100 nM | O=C(O)C(=O)c1cc(C(F)(F)F)ccc1CN1CCN(C(=O)OC(C(F)(F)F)C(F)(F)F)CC1 [Example 76, 2-(2-((4-(((1,1,1,3,3,3-hexafluoropropan-2-yl)oxy)carbonyl)piperazin-1-yl)methyl)-5-(trifluoromethyl)phenyl)-2-oxoacetic acid]
3 | < 25% | > 1000 nM | > 75% | > 1000 nM | > 75% | 100 to 1000 nM | O=C(O)[C@@H]1CCCN1c1cc(CN2CCN(C(=O)OC(C(F)(F)F)C(F)(F)F)CC2)ccc1C(F)(F)F [Example 77, (5-((4-(((1,1,1,3,3,3-hexafluoropropan-2-yl)oxy)carbonyl)piperazin-1-yl)methyl)-2-(trifluoromethyl)phenyl)proline]
4 | < 25% | > 1000 nM | > 75% | 100 to 1000 nM | > 75% | < 100 nM | CCOC(=O)C1CCCN1c1cc(CN2CCN(C(=O)OC(C(F)(F)F)C(F)(F)F)CC2)ccc1C(F)(F)F (stereo not drawn) [Example 78, 1,1,1,3,3,3-hexafluoropropan-2-yl 4-(3-(2-(ethoxycarbonyl)pyrrolidin-1-yl)-4-(trifluoromethyl)benzyl)piperazine-1-carboxylate]
5 | < 25% | > 1000 nM | > 75% | < 100 nM | > 75% | < 100 nM | O=C(OC(C(F)(F)F)C(F)(F)F)N1CCN(Cc2ccc(C(F)(F)F)c(N3CCCC3CO)c2)CC1 (stereo not drawn) [Example 79, 1,1,1,3,3,3-hexafluoropropan-2-yl 4-(3-(2-(hydroxymethyl)pyrrolidin-1-yl)-4-(trifluoromethyl)benzyl)piperazine-1-carboxylate]
6 | < 25% | > 1000 nM | 25 to 75% | 100 to 1000 nM | > 75% | < 100 nM | O=C(O)C1CCN(c2cc(CN3CCN(C(=O)OC(C(F)(F)F)C(F)(F)F)CC3)ccc2C(F)(F)F)C1 (stereo not drawn) [Example 80, 1-(5-((4-(((1,1,1,3,3,3-hexafluoropropan-2-yl)oxy)carbonyl)piperazin-1-yl)methyl)-2-(trifluoromethyl)phenyl)pyrrolidine-3-carboxylic acid]
7 | < 25% | > 1000 nM | > 75% | 100 to 1000 nM | > 75% | 100 to 1000 nM | O=C(OC(C(F)(F)F)C(F)(F)F)N1CCN(Cc2ccc(C(F)(F)F)c(N3CCC(CO)C3)c2)CC1 (stereo not drawn) [Example 81, 1,1,1,3,3,3-hexafluoropropan-2-yl 4-(3-(3-(hydroxymethyl)pyrrolidin-1-yl)-4-(trifluoromethyl)benzyl)piperazine-1-carboxylate]
8 | < 25% | > 1000 nM | > 75% | 100 to 1000 nM | > 75% | < 100 nM | O=C(OC(C(F)(F)F)C(F)(F)F)N1CCN(Cc2ccc(C(F)(F)F)c(N3CCC(CO)CC3)c2)CC1 [Example 82, 1,1,1,3,3,3-hexafluoropropan-2-yl 4-(3-(4-(hydroxymethyl)piperidin-1-yl)-4-(trifluoromethyl)benzyl)piperazine-1-carboxylate]
9 | < 25% | > 1000 nM | < 25% | 100 to 1000 nM | > 75% | < 100 nM | O=C(O)C1CN(c2cc(CN3CCN(C(=O)OC(C(F)(F)F)C(F)(F)F)CC3)ccc2C(F)(F)F)CCO1 (stereo not drawn) [Example 83, 4-(5-((4-(((1,1,1,3,3,3-hexafluoropropan-2-yl)oxy)carbonyl)piperazin-1-yl)methyl)-2-(trifluoromethyl)phenyl)morpholine-2-carboxylic acid]
10 | < 25% | > 1000 nM | > 75% | < 100 nM | > 75% | < 100 nM | O=C(O)C(=O)c1cc(CN2CCN(C(=O)OC(C(F)(F)F)C(F)(F)F)CC2)ccc1C(F)(F)F [Example 84, 2-(5-((4-(((1,1,1,3,3,3-hexafluoropropan-2-yl)oxy)carbonyl)piperazin-1-yl)methyl)-2-(trifluoromethyl)phenyl)-2-oxoacetic acid]
11 | < 25% | > 1000 nM | > 75% | 100 to 1000 nM | 25 to 75% | 100 to 1000 nM | O=C(O)C1CCN(c2cc(CN3CCN(C(=O)OC(C(F)(F)F)C(F)(F)F)CC3)ccc2C(F)(F)F)CC1 [Example 85, 1-(5-((4-(((1,1,1,3,3,3-hexafluoropropan-2-yl)oxy)carbonyl)piperazin-1-yl)methyl)-2-(trifluoromethyl)phenyl)piperidine-4-carboxylic acid]
12 | < 25% | > 1000 nM | > 75% | 100 to 1000 nM | > 75% | < 100 nM | CCOC(=O)C1CCCN1c1cc(CN2CCN(C(=O)OC(C(F)(F)F)C(F)(F)F)CC2)cc(C(F)(F)F)c1 (stereo not drawn) [Example 87, 1,1,1,3,3,3-hexafluoropropan-2-yl 4-(3-(2-(ethoxycarbonyl)pyrrolidin-1-yl)-5-(trifluoromethyl)benzyl)piperazine-1-carboxylate]
13 | < 25% | > 1000 nM | 25 to 75% | 100 to 1000 nM | > 75% | 100 to 1000 nM | O=C(OC(C(F)(F)F)C(F)(F)F)N1CCN(Cc2cc(N3CCCC3CO)cc(C(F)(F)F)c2)CC1 (stereo not drawn) [Example 88, 1,1,1,3,3,3-hexafluoropropan-2-yl 4-(3-(2-(hydroxymethyl)pyrrolidin-1-yl)-5-(trifluoromethyl)benzyl)piperazine-1-carboxylate]
14 | < 25% | > 1000 nM | > 75% | < 100 nM | > 75% | 100 to 1000 nM | O=C(O)C1CCN(c2cc(CN3CCN(C(=O)OC(C(F)(F)F)C(F)(F)F)CC3)cc(C(F)(F)F)c2)C1 (stereo not drawn) [Example 89, 1-(3-((4-(((1,1,1,3,3,3-hexafluoropropan-2-yl)oxy)carbonyl)piperazin-1-yl)methyl)-5-(trifluoromethyl)phenyl)pyrrolidine-3-carboxylic acid]
15 | < 25% | > 1000 nM | > 75% | 100 to 1000 nM | > 75% | < 100 nM | O=C(OC(C(F)(F)F)C(F)(F)F)N1CCN(Cc2cc(N3CCC(CO)C3)cc(C(F)(F)F)c2)CC1 (stereo not drawn) [Example 90, 1,1,1,3,3,3-hexafluoropropan-2-yl 4-(3-(3-(hydroxymethyl)pyrrolidin-1-yl)-5-(trifluoromethyl)benzyl)piperazine-1-carboxylate]

Source: patent US9771341B2, “Piperazine carbamates and methods of making and using same” (Abide Therapeutics, Inc., priority 2015, dated 2017)
